Measured values: PubChem BioAssay AID1963986 (Molecular Pharmacology Branch, DTP, NCI, 2024)
pIC50: −log10 of the molar value. Values belong to the molecule of their own block, whether it stands above or below them.

System: 171881-019-R-J1-PDC tumor spheroid viability
Experiment: Anticancer human tumor 171881-019-R-J1-PDC patient-derived invasive breast carcinoma cell line growth inhibition [PI3K]
Settings: spheroids with HUVEC and MSC; for pIC50: curve of first compound; for viability, T/C: stronger effect = lower value
Outline: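 Spheroid viability read-out. Co-cultures contained the tumor line plus HUVEC and human MSCs. Each agent was paired with a PI3K inhibitor (inavolisib, alpelisib, duvelisib, copanlisib) across half-log dilutions starting at clinical Cmax, or at 10 microM when Cmax was unknown.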

[1] = second compound 0.0316 µM, first compound 0.00316 µM
[2] = second compound 0.0316 µM, first compound 0.01 µM
[3] = second compound 0.0316 µM, first compound 0.0316 µM
[4] = second compound 0.0316 µM, first compound 0.1 µM
[5] = second compound 0.0316 µM, first compound 0.316 µM
[6] = second compound 0.0316 µM, first compound 1 µM
[7] = second compound 0.1 µM, first compound 0.00316 µM
[8] = second compound 0.1 µM, first compound 0.01 µM
[9] = second compound 0.1 µM, first compound 0.0316 µM
[10] = second compound 0.1 µM, first compound 0.1 µM
[11] = second compound 0.1 µM, first compound 0.316 µM
[12] = second compound 0.1 µM, first compound 1 µM
[13] = second compound 0.316 µM, first compound 0.00316 µM
[14] = second compound 0.316 µM, first compound 0.01 µM
[15] = second compound 0.316 µM, first compound 0.0316 µM
[16] = second compound 0.316 µM, first compound 0.1 µM
[17] = second compound 0.316 µM, first compound 0.316 µM
[18] = second compound 0.316 µM, first compound 1 µM
[19] = second compound 1 µM, first compound 0.00316 µM
[20] = second compound 1 µM, first compound 0.01 µM
[21] = second compound 1 µM, first compound 0.0316 µM
[22] = second compound 1 µM, first compound 0.1 µM
[23] = second compound 1 µM, first compound 0.316 µM
[24] = second compound 1 µM, first compound 1 µM
[25] = second compound 3.16 µM, first compound 0.00316 µM
[26] = second compound 3.16 µM, first compound 0.01 µM
[27] = second compound 3.16 µM, first compound 0.0316 µM
[28] = second compound 3.16 µM, first compound 0.1 µM
[29] = second compound 10 µM, first compound 0.00316 µM
[30] = second compound 10 µM, first compound 0.01 µM
[31] = second compound 10 µM, first compound 0.0316 µM
[32] = second compound 10 µM, first compound 0.1 µM
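Also: spheroids exposed to compound for 7 days before viability read.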
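For viability, T/C in this document: 100% = DMSO vehicle-treated spheroids.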

- pIC50 (second compound 0.00316 µM): < 6.00
- pIC50 (second compound 0.01 µM): < 6.00
- pIC50 (second compound 0.0316 µM): < 6.00
- pIC50 (second compound 0.1 µM): > 8.50
- pIC50 (second compound 0.316 µM): > 8.50
- pIC50 (second compound 1 µM): > 8.50
Compound: CCN1CCN(Cc2ccc(Nc3ncc(F)c(-c4cc(F)c5nc(C)n(C(C)C)c5c4)n3)nc2)CC1 + CC(Nc1ccc2c(c1)OCCn1cc(N3C(=O)OCC3C(F)F)nc1-2)C(N)=O
- viability, T/C (second compound 0.00316 µM, first compound 0.00316 µM): 87%
- viability, T/C (second compound 0.00316 µM, first compound 0.01 µM): 95.7%
- viability, T/C (second compound 0.00316 µM, first compound 0.0316 µM): 108%
- viability, T/C (second compound 0.00316 µM, first compound 0.1 µM): 106%
- viability, T/C (second compound 0.00316 µM, first compound 0.316 µM): 120%
- viability, T/C (second compound 0.00316 µM, first compound 1 µM): 122%
- viability, T/C (second compound 0.01 µM, first compound 0.00316 µM): 82.5%
- viability, T/C (second compound 0.01 µM, first compound 0.01 µM): 77.5%
- viability, T/C (second compound 0.01 µM, first compound 0.0316 µM): 85.9%
- viability, T/C (second compound 0.01 µM, first compound 0.1 µM): 84.9%
- viability, T/C (second compound 0.01 µM, first compound 0.316 µM): 95.7%
- viability, T/C (second compound 0.01 µM, first compound 1 µM): 109%
- viability, T/C [1]: 58%
- viability, T/C [2]: 57.3%
- viability, T/C [3]: 63.9%
- viability, T/C [4]: 64.5%
- viability, T/C [5]: 80.8%
- viability, T/C [6]: 80.1%
- viability, T/C [7]: 40%
- viability, T/C [8]: 38.3%
- viability, T/C [9]: 47.2%
- viability, T/C [10]: 48.2%
- viability, T/C [11]: 63%
- viability, T/C [12]: 70.2%
- viability, T/C [13]: 27.6%
- viability, T/C [14]: 24.9%
- viability, T/C [15]: 33.1%
- viability, T/C [16]: 39.4%
- viability, T/C [17]: 46.4%
- viability, T/C [18]: 55.6%
- viability, T/C [19]: 23.1%
- viability, T/C [20]: 20.7%
- viability, T/C [21]: 26.6%
- viability, T/C [22]: 28.5%
- viability, T/C [23]: 36.4%
- viability, T/C [24]: 50.1%

- pIC50 (second compound 0.0316 µM): < 7.00
- pIC50 (second compound 0.1 µM): < 7.00
- pIC50 (second compound 0.316 µM): < 7.00
- pIC50 (second compound 1 µM): < 7.00
- pIC50 (second compound 3.16 µM): < 7.00
- pIC50 (second compound 10 µM): < 7.00
Compound: Cn1ncnc1[C@H]1c2n[nH]c(=O)c3cc(F)cc(c23)N[C@@H]1c1ccc(F)cc1 + CC(Nc1ncnc2nc[nH]c12)c1cc2cccc(Cl)c2c(=O)n1-c1ccccc1
- viability, T/C (second compound 0.0316 µM, first compound 0.000316 µM): 88.4%
- viability, T/C (second compound 0.0316 µM, first compound 0.001 µM): 96.4%
- viability, T/C [1]: 93.4%
- viability, T/C [2]: 104%
- viability, T/C [3]: 97.3%
- viability, T/C [4]: 92.1%
- viability, T/C (second compound 0.1 µM, first compound 0.000316 µM): 102%
- viability, T/C (second compound 0.1 µM, first compound 0.001 µM): 98.6%
- viability, T/C [7]: 88.8%
- viability, T/C [8]: 109%
- viability, T/C [9]: 90.6%
- viability, T/C [10]: 102%
- viability, T/C (second compound 0.316 µM, first compound 0.000316 µM): 93.2%
- viability, T/C (second compound 0.316 µM, first compound 0.001 µM): 99.5%
- viability, T/C [13]: 92.1%
- viability, T/C [14]: 106%
- viability, T/C [15]: 90.1%
- viability, T/C [16]: 95.8%
- viability, T/C (second compound 1 µM, first compound 0.000316 µM): 82%
- viability, T/C (second compound 1 µM, first compound 0.001 µM): 100%
- viability, T/C [19]: 105%
- viability, T/C [20]: 103%
- viability, T/C [21]: 97.1%
- viability, T/C [22]: 98.2%
- viability, T/C (second compound 3.16 µM, first compound 0.000316 µM): 83.5%
- viability, T/C (second compound 3.16 µM, first compound 0.001 µM): 91.3%
- viability, T/C [25]: 85.1%
- viability, T/C [26]: 93.2%
- viability, T/C [27]: 92.5%
- viability, T/C [28]: 78.1%
- viability, T/C (second compound 10 µM, first compound 0.000316 µM): 61.6%
- viability, T/C (second compound 10 µM, first compound 0.001 µM): 64.7%
- viability, T/C [29]: 60.5%
- viability, T/C [30]: 60.8%
- viability, T/C [31]: 57.2%
- viability, T/C [32]: 57.6%

- pIC50 (second compound 0.0316 µM): < 6.00
- pIC50 (second compound 0.1 µM): < 6.00
- pIC50 (second compound 0.316 µM): < 6.00
- pIC50 (second compound 1 µM): < 6.00
- pIC50 (second compound 3.16 µM): < 6.00
- pIC50 (second compound 10 µM): < 6.00
Compound: CCN1CCN(Cc2ccc(Nc3ncc(F)c(-c4cc(F)c5nc(C)n(C(C)C)c5c4)n3)nc2)CC1 + CC(Nc1ncnc2nc[nH]c12)c1cc2cccc(Cl)c2c(=O)n1-c1ccccc1
- viability, T/C [1]: 96.4%
- viability, T/C [2]: 98.5%
- viability, T/C [3]: 103%
- viability, T/C [4]: 98%
- viability, T/C [5]: 122%
- viability, T/C [6]: 117%
- viability, T/C [7]: 99%
- viability, T/C [8]: 95.5%
- viability, T/C [9]: 99.8%
- viability, T/C [10]: 110%
- viability, T/C [11]: 113%
- viability, T/C [12]: 118%
- viability, T/C [13]: 95.4%
- viability, T/C [14]: 103%
- viability, T/C [15]: 103%
- viability, T/C [16]: 105%
- viability, T/C [17]: 111%
- viability, T/C [18]: 116%
- viability, T/C [19]: 92.7%
- viability, T/C [20]: 98.4%
- viability, T/C [21]: 97.5%
- viability, T/C [22]: 108%
- viability, T/C [23]: 114%
- viability, T/C [24]: 114%
- viability, T/C [25]: 95.5%
- viability, T/C [26]: 94.8%
- viability, T/C [27]: 72.9%
- viability, T/C [28]: 98.6%
- viability, T/C (second compound 3.16 µM, first compound 0.316 µM): 104%
- viability, T/C (second compound 3.16 µM, first compound 1 µM): 101%
- viability, T/C [29]: 67.5%
- viability, T/C [30]: 61%
- viability, T/C [31]: 69.5%
- viability, T/C [32]: 72.5%
- viability, T/C (second compound 10 µM, first compound 0.316 µM): 80.8%
- viability, T/C (second compound 10 µM, first compound 1 µM): 84.3%
